Results reported in US8247211B2, “Glycopeptide antibiotics” (American Cyanamid Company, priority 2001, dated 2012).
Values after ≈ are worked out from the molar mass of the structure shown.

Legend:
Assay in all cases: In vitro antibacterial evaluation: minimum inhibitory concentration (MIC), broth dilution method
Type in all cases: cell-based
[1] = tested on: Streptococcus sp.; conditions: 18 hours at 35° C.
In short: (§1)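 MIC read as lowest drug level preventing visible growth. Organisms at 5×10^5 CFU/mL were exposed to a 64-0.06 μg/mL dilution series in Muller-Hinton II […] following NCCLS broth dilution standard M7-A2.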

[2] = tested on: Enterococcus sp.; conditions: 18 hours at 35° C.
In short: as §1

[3] = tested on: Escherichia coli; conditions: 18 hours at 35° C.
In short: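 Following NCCLS approved standard M7-A2, compounds are serially diluted from 64 to 0.06 μg/mL in Muller-Hinton II […] and inoculated at 5×10^5 CFU/mL; the MIC is the minimum concentration at which growth is inhibited.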

[4] = tested on: Staphylococcus sp.
In short: as §1

[5] = broth dilution, inoculum 5×10^5 CFU/mL

MIC Streptococcus agalactiae (GC 4564) ([1]; Streptococcus agalactiae (GC 4564)): <0.06 µg/mL
MIC Streptococcus pneumoniae (ATCC 6301) ([1]; Streptococcus pneumoniae (ATCC 6301)): 0.25 µg/mL (≈ 0.177 µM)
MIC Streptococcus pneumoniae (GC 1894) ([1]; Streptococcus pneumoniae (GC 1894)): 0.12 µg/mL (≈ 0.085 µM)
MIC Streptococcus pneumoniae (GC 4565) ([1]; Streptococcus pneumoniae (GC 4565)): <0.06 µg/mL
MIC Streptococcus pyogenes (GC 4563) ([1]; Streptococcus pyogenes (GC 4563)): <0.06 µg/mL
MIC Streptococcus agalactiae (GC 4564) [1, 5]: <0.06 µg/mL
MIC Streptococcus pneumoniae (ATCC 6301) [1, 5]: 0.25 µg/mL (≈ 0.177 µM)
MIC Streptococcus pneumoniae (GC 1894) [1, 5]: 0.12 µg/mL (≈ 0.085 µM)
MIC Streptococcus pneumoniae (GC 4565) [1, 5]: <0.06 µg/mL
MIC Streptococcus pyogenes (GC 4563) [1, 5]: <0.06 µg/mL
MIC Enterococcus avium (GC 4558) ([2]; Enterococcus avium (GC 4558)): 2 µg/mL (≈ 1.42 µM)
MIC Enterococcus faecalis (ATCC 29212) ([2]; Enterococcus faecalis (ATCC 29212)): 2 µg/mL (≈ 1.42 µM)
MIC Enterococcus faecalis (GC 2242) ([2]; Enterococcus faecalis (GC 2242)): 1 µg/mL (≈ 0.708 µM)
MIC Enterococcus faecalis (GC 2691) ([2]; Enterococcus faecalis (GC 2691)): 2 µg/mL (≈ 1.42 µM)
MIC Enterococcus faecalis (GC 3059) ([2]; Enterococcus faecalis (GC 3059)): 1 µg/mL (≈ 0.708 µM)
MIC Enterococcus faecalis (GC 4552) ([2]; Enterococcus faecalis (GC 4552)): 1 µg/mL (≈ 0.708 µM)
MIC Enterococcus faecalis (GC 4553) ([2]; Enterococcus faecalis (GC 4553)): 2 µg/mL (≈ 1.42 µM)
MIC Enterococcus faecalis (GC 4554) ([2]; Enterococcus faecalis (GC 4554)): 1 µg/mL (≈ 0.708 µM)
MIC Enterococcus faecalis (GC 6189) ([2]; Enterococcus faecalis (GC 6189)): 0.5 µg/mL (≈ 0.354 µM)
MIC Enterococcus faecium (GC 2243) ([2]; Enterococcus faecium (GC 2243)): 1 µg/mL (≈ 0.708 µM)
MIC Enterococcus faecium (GC 4556) ([2]; Enterococcus faecium (GC 4556)): 1 µg/mL (≈ 0.708 µM)
MIC Enterococcus faecium (GC 4557) ([2]; Enterococcus faecium (GC 4557)): 2 µg/mL (≈ 1.42 µM)
MIC Enterococcus avium (GC 4558) [2, 5]: 2 µg/mL (≈ 1.42 µM)
MIC Enterococcus faecalis (ATCC 29212) [2, 5]: 2 µg/mL (≈ 1.42 µM)
MIC Enterococcus faecalis (GC 2242) [2, 5]: 1 µg/mL (≈ 0.708 µM)
MIC Enterococcus faecalis (GC 2691) [2, 5]: 2 µg/mL (≈ 1.42 µM)
MIC Enterococcus faecalis (GC 3059) [2, 5]: 1 µg/mL (≈ 0.708 µM)
MIC Enterococcus faecalis (GC 4552) [2, 5]: 1 µg/mL (≈ 0.708 µM)
MIC Enterococcus faecalis (GC 4553) [2, 5]: 2 µg/mL (≈ 1.42 µM)
MIC Enterococcus faecalis (GC 4554) [2, 5]: 1 µg/mL (≈ 0.708 µM)
MIC Enterococcus faecalis (GC 6189) [2, 5]: 0.5 µg/mL (≈ 0.354 µM)
MIC Enterococcus faecium (GC 2243) [2, 5]: 1 µg/mL (≈ 0.708 µM)
MIC Enterococcus faecium (GC 4556) [2, 5]: 1 µg/mL (≈ 0.708 µM)
MIC Enterococcus faecium (GC 4557) [2, 5]: 2 µg/mL (≈ 1.42 µM)
MIC Escherichia coli (GC 4559) ([3]; Escherichia coli (GC 4559)): 32 µg/mL (≈ 22.7 µM)
MIC Escherichia coli (GC 4560) ([3]; Escherichia coli (GC 4560)): 2 µg/mL (≈ 1.42 µM)
MIC Staphylococcus aureus (ATCC 29213) ([4]; strain ATCC 29213): 0.5 µg/mL (≈ 0.354 µM)
MIC Staphylococcus aureus (GC 1131) ([4]; strain GC 1131): 1 µg/mL (≈ 0.708 µM)
MIC Staphylococcus aureus (GC 3051) ([4]; strain GC 3051): 1 µg/mL (≈ 0.708 µM)
MIC Staphylococcus aureus (GC 3053) ([4]; strain GC 3053): 1 µg/mL (≈ 0.708 µM)
MIC Staphylococcus aureus (GC 4541) ([4]; strain GC 4541): 0.5 µg/mL (≈ 0.354 µM)
MIC Staphylococcus aureus (GC 4542) ([4]; strain GC 4542): 0.5 µg/mL (≈ 0.354 µM)
MIC Staphylococcus aureus-SMITH (GC 4543) ([4]; strain GC 4543): 0.5 µg/mL (≈ 0.354 µM)
MIC Staphylococcus aureus (GC 4544) ([4]; strain GC 4544): 2 µg/mL (≈ 1.42 µM)
MIC Staphylococcus aureus (GC 4545) ([4]; strain GC 4545): 1 µg/mL (≈ 0.708 µM)
MIC Coagulase Negative Staphylococcus (GC 4547) ([4]; strain GC 4547): 1 µg/mL (≈ 0.708 µM)
MIC Coagulase Negative Staphylococcus (GC 4548) ([4]; strain GC 4548): 0.5 µg/mL (≈ 0.354 µM)
MIC Coagulase Negative Staphylococcus (GC 4549) ([4]; strain GC 4549): 0.5 µg/mL (≈ 0.354 µM)
MIC Coagulase Negative Staphylococcus (GC 4551) ([4]; strain GC 4551): 1 µg/mL (≈ 0.708 µM)
MIC Coagulase Negative Staphylococcus (GC 6257) ([4]; strain GC 6257): 0.5 µg/mL (≈ 0.354 µM)
Compound: CCCC(C)C1OCC2OC(OC3C(CO)OC(Oc4ccc(CC5NC(=O)C(C(C)c6ccc(Cl)cc6)NC(=O)CNC(=O)C(CO)NC(=O)C(C(O)C6CNC(=N)N6C6OC(CO)C(O)C(O)C6O)NC(=O)C(C(O)C6CNC(=N)N6)NC5=O)cc4)C(O)C3O)C(O)C(O)C2O1 (stereo not drawn) [Example 194, Cyclo[glycyl-4-chloro-β-methylphenylalanyl-O-[4-O-[4,6-O-(2-methylpentylidene)hexopyranosyl]hexopyranosyl]tyrosyl-3-(2-iminoimidazolidin-4-yl)seryl-3-(3-hexopyranosyl-2-iminoimidazolidin-4-yl)serylseryl]]
MIC Staphylococcus haemolyticus (GC 4546) ([4]; strain GC 4546): 0.5 µg/mL (≈ 0.354 µM)
